Data published in the NIST ThermoML archive (doi:10.1021/je500606d).

Settings: Liquid, Ebulliometric method (Recirculating still)

COCC(CO)OC (stereo not given) [2,3-dimethoxy-1-propanol]
Settings	vapor or sublimation pressure [kPa]
337.95 K	3.2
368.95 K	7.84
398.1 K	19.27
408.55 K	27.33
413.05 K	32.46
419.7 K	38.8
423.55 K	45.86
431.55 K	59.8
433.15 K	65.6
434.85 K	70.66
437.35 K	76.53
439.75 K	83.33
441.65 K	87.26
444.45 K	95.73
446.65 K	100.79
